# ChEMBL document CHEMBL1201862, “PubChem BioAssay data set” (2004)
# Active and inactive are the calls of the source.
# Experiments:
# [1] = target: T1, Short transient receptor potential channel 4 (Mus musculus, UniProt Q9QUQ5); experiment: block of DAMGO-driven TRPC4 calcium entry – cell-based, HEK293 TRPC4/mu-opioid, Fluo-4 calcium, dose response (AID 434942); assay type: functional;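 also: potency of inhibitors blocking the TRPC4 calcium response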
# T1 sequence (Q9QUQ5 whole entry): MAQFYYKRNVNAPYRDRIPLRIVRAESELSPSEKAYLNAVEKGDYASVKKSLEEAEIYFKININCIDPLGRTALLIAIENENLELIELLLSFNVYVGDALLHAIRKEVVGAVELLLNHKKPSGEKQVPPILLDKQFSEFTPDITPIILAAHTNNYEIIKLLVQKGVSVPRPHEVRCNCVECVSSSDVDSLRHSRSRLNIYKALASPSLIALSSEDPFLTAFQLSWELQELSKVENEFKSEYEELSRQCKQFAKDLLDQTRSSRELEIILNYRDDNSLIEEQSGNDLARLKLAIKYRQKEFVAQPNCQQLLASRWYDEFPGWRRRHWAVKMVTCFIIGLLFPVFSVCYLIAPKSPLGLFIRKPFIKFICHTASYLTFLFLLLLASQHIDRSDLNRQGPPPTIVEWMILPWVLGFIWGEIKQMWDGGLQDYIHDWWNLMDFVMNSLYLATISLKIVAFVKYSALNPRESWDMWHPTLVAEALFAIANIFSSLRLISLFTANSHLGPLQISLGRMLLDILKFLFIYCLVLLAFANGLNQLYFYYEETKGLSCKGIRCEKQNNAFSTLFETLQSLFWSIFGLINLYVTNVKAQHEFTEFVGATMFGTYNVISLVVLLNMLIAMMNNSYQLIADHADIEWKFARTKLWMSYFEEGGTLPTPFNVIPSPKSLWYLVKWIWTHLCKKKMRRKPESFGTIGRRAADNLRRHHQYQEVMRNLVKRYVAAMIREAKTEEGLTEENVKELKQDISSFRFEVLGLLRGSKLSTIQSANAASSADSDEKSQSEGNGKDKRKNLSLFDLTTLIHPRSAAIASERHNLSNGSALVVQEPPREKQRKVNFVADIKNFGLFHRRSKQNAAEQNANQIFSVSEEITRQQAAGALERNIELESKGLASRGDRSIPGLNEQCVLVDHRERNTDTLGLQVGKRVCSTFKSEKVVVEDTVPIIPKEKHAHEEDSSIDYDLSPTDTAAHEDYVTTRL
# Aminopeptidase N = target: T2, Aminopeptidase N (Plasmodium falciparum FcB1/Columbia, UniProt O96935); experiment: malaria alanyl aminopeptidase activity blockers – biochemical, fluorogenic H-Leu-NHMec substrate, 1536-well (AID 1445); set-up: species or system Plasmodium falciparum 3D7, 3D7
# T2 sequence (O96935 whole entry): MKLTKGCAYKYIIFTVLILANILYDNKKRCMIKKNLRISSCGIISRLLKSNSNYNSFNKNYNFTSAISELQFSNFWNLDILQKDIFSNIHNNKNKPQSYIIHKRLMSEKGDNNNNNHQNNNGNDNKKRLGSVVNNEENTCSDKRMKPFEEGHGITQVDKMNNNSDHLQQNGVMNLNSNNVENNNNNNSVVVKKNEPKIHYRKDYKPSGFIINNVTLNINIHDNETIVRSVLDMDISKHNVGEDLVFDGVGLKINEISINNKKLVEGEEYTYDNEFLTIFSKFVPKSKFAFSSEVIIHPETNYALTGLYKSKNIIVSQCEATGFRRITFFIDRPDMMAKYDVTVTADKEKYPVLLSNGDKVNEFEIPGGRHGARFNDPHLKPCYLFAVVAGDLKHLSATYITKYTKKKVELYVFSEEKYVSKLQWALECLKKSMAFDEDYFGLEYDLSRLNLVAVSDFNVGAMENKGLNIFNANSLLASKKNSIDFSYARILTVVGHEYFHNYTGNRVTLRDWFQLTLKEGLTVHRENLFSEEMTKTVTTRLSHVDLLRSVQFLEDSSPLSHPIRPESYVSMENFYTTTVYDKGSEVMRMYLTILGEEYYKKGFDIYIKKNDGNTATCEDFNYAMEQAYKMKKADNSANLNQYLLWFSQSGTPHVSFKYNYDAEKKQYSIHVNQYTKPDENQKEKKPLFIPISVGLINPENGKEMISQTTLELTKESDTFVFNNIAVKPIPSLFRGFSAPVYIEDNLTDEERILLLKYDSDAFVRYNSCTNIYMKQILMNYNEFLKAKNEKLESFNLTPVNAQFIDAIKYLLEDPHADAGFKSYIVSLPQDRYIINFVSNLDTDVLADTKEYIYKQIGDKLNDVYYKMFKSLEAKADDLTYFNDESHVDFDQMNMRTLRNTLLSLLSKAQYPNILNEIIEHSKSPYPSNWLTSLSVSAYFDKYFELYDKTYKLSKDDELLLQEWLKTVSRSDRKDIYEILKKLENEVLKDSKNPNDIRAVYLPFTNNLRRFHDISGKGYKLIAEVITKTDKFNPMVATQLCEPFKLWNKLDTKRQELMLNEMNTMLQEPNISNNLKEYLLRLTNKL
# X-box-binding protein 1 = target: T3, X-box-binding protein 1 (Homo sapiens, UniProt P17861); assay type: functional, Cricetulus griseus;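 also: confirmatory dose-response counter-screen serving a CHOP assay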
# T3 sequence (P17861 whole entry): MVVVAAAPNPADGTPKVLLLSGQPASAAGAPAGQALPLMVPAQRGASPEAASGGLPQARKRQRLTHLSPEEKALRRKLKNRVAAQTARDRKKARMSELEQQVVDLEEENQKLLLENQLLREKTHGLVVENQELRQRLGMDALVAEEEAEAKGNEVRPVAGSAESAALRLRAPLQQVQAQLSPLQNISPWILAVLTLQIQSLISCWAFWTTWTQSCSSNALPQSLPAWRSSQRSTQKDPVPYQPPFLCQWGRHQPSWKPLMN
# [2] = target: DNA dC->dU-editing enzyme APOBEC-3A (Homo sapiens, UniProt P31941); experiment: Dose Response confirmation of small molecule APOBEC3A DNA Deaminase Inhibitors via a fluorescence-based single-stranded DNA deaminase assay. [Related pubchem assays (depositor defined):AID493011, AID493024]; assay type: functional
# [3] = target: Polyadenylate-binding protein 1 (Homo sapiens, UniProt P11940); experiment: blockers of PABP interaction with poly(A) – biochemical, fluorescence polarization, […] (AID 2014)
# [4] = target: DNA dC->dU-editing enzyme APOBEC-3G (Homo sapiens, UniProt Q9HC16); assay type: functional;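 also: Dose-response counterscreen measuring inhibition of APOBEC3G DNA deaminase activity, run while confirming APOBEC3A inhibitors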
# [5] = target: Eukaryotic translation initiation factor 4H (Homo sapiens, UniProt Q15056); experiment: eIF4H binding inhibition – biochemical, uHTS, fluorescence polarization, translation initiation inhibitor project, primary screen (AID 2012)
# [6] = NIH-3T3 fibroblast cytotoxicity, dose response, cytotoxicity control, cell-based, fluorescence, Alamar Blue, secondary assay (AID 2327); assay type: functional;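 also: NIH-3T3 mouse fibroblasts cultured with fluconazole at 8 µg/mL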
# [7] = fluconazole-exposed Candida albicans growth modulators – fluorescence, retest, confirmation (AID 2467); assay type: functional, cell-based
# [8] = A Cell Based Secondary Assay To Explore Cytotoxicity of Compounds that Sensitize Mycobacterium Tuberculosis to Beta-Lactam Antibiotics.; assay type: functional
# [9] = NIH3T3 cell viability loss – ATP luminescence, mouse fibroblasts, counter-screen, dose response (AID 2010); assay type: functional, cell-based;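 also: cells exposed to compound for about 90 hours before reading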
# [10] = Luminescence Cell-Based Dose Response HTS to Identify Activators of Luciferase Translation or Activity in H4 […] Cells. [Related pubchem assays: 1829 (Project Summary), 1814 (Primary HTS)]; assay type: functional
# [11] = viability of uninfected HEp-2 cells – cell-based, HTS, cytotoxicity control for RSV inhibitor project, dose response (AID 2410); assay type: functional; details: human respiratory syncytial virus
# H4 = experiment: Luminescence Cell-Based Dose Response HTS to Identify Activators of 5'UTR Stem-Loop Driven Prion Protein mRNA Translation in H4 Neuroglioblastoma Cells. [Related pubchem assays: 1829 (Project Summary), 1814 (Primary HTS)]; assay type: functional; details: Homo sapiens
# [12] = Trypanosoma cruzi growth suppression in host cells – NIH3T3 host cells, beta-gal luminescence, confirmation (AID 2044); assay type: functional, cell-based;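 also: intracellular parasites grown in NIH/3T3 mouse fibroblasts as host cells; luminescent beta-galactosidase reporter signal from transgenic T. cruzi replicating inside host cells; inhibitors lower the luminescence signal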
# Genome polyprotein = Genome polyprotein (dengue virus type 2, UniProt P29990); experiment: flavivirus cap methylation enzyme inhibition – biochemical, confirmation dose response, primary screen (AID 588689); assay type: functional
# [13] = Luminescence Cell-Based Dose Confirmation HTS to Identify Activators of 5'UTR Stem-Loop Driven Alpha-Synuclein mRNA Translation in H4 Neuroglioblastoma Cells. [Related pubchem assays: 1829 (Project Summary), 1814 (Primary HTS)]; assay type: functional
# [14] = target: Alkaline phosphatase, placental type (Homo sapiens, UniProt P05187); experiment: human placental alkaline phosphatase inhibition – biochemical, luminescence, confirmation (AID 1512); assay type: functional
# [15] = target: T4, Alkaline phosphatase, tissue-nonspecific isozyme (Homo sapiens, UniProt P05186); experiment: potency against alkaline phosphatase TNAP – biochemical, luminescent, dose response, SAR follow-up (AID 1056)
# T4 sequence (P05186 whole entry): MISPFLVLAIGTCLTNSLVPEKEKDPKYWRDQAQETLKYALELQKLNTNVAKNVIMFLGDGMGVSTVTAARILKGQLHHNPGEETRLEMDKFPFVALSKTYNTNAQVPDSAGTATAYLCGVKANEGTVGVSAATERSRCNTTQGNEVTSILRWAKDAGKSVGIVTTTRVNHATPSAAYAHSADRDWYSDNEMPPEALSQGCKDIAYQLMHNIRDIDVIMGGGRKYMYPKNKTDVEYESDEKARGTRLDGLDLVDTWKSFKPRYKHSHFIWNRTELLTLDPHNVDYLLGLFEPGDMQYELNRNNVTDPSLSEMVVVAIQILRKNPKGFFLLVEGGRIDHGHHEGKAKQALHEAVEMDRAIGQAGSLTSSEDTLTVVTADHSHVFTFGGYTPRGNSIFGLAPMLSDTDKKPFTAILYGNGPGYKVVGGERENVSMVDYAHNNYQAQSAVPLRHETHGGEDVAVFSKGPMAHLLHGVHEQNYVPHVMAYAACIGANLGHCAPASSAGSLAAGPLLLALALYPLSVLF
# [16] = target: Glyceraldehyde-3-phosphate dehydrogenase (Homo sapiens, UniProt P04406)
# Sequence of Glyceraldehyde-3-phosphate dehydrogenase (P04406 whole entry): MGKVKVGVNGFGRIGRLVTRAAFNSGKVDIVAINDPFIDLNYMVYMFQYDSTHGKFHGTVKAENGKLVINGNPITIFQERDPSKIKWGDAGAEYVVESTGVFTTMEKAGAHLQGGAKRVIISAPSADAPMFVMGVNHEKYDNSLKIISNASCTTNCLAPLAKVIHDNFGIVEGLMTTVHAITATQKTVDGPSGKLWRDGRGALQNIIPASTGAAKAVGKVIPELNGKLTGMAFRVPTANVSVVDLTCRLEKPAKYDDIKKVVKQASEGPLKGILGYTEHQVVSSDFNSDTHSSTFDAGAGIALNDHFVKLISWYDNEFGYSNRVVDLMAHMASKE
# Sequence of Polyadenylate-binding protein 1 (P11940 whole entry): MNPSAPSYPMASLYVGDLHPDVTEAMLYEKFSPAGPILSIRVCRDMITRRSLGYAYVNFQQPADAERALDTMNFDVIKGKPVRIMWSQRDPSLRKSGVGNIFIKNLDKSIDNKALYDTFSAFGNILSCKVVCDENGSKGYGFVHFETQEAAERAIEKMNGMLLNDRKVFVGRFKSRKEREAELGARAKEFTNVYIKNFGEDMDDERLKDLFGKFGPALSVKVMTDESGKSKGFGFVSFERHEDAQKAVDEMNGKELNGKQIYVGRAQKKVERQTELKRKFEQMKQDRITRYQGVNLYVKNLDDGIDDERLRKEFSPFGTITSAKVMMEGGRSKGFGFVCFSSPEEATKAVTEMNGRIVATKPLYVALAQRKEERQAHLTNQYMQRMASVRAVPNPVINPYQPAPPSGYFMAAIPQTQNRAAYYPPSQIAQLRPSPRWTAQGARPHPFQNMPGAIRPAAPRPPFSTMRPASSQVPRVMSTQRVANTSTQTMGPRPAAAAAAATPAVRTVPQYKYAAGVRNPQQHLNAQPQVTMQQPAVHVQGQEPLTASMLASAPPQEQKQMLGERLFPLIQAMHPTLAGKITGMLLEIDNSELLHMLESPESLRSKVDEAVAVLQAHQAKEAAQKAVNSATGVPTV
# Sequence of Alkaline phosphatase, placental type (P05187 whole entry): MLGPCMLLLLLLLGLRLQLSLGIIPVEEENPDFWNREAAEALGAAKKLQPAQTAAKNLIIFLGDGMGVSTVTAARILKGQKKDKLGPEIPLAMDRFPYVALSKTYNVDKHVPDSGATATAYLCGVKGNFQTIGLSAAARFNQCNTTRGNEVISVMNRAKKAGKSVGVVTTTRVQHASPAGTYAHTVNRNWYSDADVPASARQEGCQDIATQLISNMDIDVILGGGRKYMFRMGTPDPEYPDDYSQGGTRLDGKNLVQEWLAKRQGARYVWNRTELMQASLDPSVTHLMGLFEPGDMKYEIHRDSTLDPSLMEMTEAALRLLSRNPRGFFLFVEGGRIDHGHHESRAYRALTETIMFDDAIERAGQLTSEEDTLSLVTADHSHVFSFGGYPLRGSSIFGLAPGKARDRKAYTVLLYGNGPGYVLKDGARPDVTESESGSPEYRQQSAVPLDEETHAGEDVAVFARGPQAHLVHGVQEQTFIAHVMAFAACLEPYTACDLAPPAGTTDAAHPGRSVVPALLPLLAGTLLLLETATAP
# Sequence of DNA dC->dU-editing enzyme APOBEC-3A (P31941 whole entry): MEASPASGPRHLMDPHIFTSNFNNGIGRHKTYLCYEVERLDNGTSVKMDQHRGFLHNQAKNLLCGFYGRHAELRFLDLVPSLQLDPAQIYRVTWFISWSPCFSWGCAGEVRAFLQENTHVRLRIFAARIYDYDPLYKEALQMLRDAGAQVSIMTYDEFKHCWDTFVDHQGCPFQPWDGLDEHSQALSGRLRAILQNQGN
# Sequence of DNA dC->dU-editing enzyme APOBEC-3G (Q9HC16 whole entry): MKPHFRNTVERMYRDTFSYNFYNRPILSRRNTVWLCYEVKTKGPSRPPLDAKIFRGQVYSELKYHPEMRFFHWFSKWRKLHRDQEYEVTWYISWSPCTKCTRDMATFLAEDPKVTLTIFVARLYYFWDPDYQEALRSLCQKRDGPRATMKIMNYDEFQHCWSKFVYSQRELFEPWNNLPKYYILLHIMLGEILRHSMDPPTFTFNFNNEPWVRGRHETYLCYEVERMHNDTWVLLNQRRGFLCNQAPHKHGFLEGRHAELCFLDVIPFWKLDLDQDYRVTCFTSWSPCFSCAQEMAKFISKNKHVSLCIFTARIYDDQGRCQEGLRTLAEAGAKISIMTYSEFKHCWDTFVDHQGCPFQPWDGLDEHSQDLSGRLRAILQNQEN
# Sequence of Genome polyprotein (P29990 2492-3391 limits assumed): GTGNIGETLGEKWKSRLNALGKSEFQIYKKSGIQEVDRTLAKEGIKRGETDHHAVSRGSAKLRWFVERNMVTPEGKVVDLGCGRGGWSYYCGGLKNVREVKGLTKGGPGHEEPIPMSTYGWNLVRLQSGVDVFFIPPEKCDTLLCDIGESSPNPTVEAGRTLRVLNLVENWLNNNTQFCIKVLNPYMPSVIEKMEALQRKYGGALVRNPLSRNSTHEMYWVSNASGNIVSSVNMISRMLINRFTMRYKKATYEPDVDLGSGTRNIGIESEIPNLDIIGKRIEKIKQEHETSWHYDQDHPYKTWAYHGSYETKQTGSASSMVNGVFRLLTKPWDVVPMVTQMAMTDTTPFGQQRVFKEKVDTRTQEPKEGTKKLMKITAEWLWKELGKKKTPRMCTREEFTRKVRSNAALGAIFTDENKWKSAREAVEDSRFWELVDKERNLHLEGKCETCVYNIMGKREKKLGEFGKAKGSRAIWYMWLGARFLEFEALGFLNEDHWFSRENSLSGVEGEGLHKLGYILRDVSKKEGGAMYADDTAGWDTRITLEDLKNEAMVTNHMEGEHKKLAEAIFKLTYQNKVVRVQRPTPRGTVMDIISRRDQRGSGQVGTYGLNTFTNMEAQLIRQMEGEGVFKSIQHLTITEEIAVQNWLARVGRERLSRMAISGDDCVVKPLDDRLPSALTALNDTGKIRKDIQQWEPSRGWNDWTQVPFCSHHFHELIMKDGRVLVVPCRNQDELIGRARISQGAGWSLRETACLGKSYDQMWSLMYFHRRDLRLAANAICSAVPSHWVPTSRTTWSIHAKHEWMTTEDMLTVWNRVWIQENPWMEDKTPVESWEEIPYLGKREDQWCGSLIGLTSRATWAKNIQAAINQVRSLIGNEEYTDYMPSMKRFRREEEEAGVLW
smiles,measurement,setting,value
O=C(c1ccc2c(c1)OCO2)C1CCCN(Cc2ccccc2OC(F)F)C1 (stereo not drawn),EC50,[1],2.99 µM (active)
Cc1[nH]c2ccccc2c1/C=C1\SC(=S)N(c2cccc(C(=O)O)c2)C1=O,IC50,Aminopeptidase N,55.9 µM (active)
CCOC(=O)N1CCC(n2c(=S)[nH]c3cc(OCC)c(OCC)cc3c2=O)CC1,Absolute IC50 (XBP1),X-box-binding protein 1,10 µM
COC(=O)CCCCCCCCC(O)C[N+]1(C)CCOCC1 (stereo not drawn),IC50,[2],2.36 µM (active)
same,IC50,[3],2.48 µM (active)
same,IC50,[4],3.49 µM (active)
same,IC50,[5],> 100 µM (inactive)
CC[N+](C)(CC)CCC/C(=N/O)C(O)(c1ccccc1)c1ccccc1,IC50,[3],5.57 µM (active)
same,IC50,[5],> 100 µM (inactive)
COCCCNc1cc(C)nc2ccccc12,EC50,[1],3.76 µM (active)
Cc1ccc(C(=O)NCC(=O)OCC(=O)NC(C)c2ccccc2)s1 (stereo not drawn),IC50,Aminopeptidase N,39.6 µM (active)
NNC(=O)Cn1c(-c2nonc2N)nc2ccccc21,IC50,Aminopeptidase N,58.2 µM (active)
COC(=O)c1c(C)n(-c2ccccc2)c2ccc(O)cc12,EC50,[6],2.59 µM (inconclusive)
same,EC50,[7],> 38 µM (not active)
same,CC50,[8],> 40 µM (active)
CC(=O)OC[C@]12CCC(C)=C[C@H]1O[C@@H]1[C@H](O)[C@@H](OC(C)=O)[C@@]2(C)[C@]12CO2 [ANGUIDIN],Absolute IC50 (XBP1),X-box-binding protein 1,0.16 µM
O=C(NC(=S)Nc1ccccc1C(=O)O)c1ccc(-c2ccc(Br)cc2)o1,EC50,[9],> 60 µM (not active)
same,EC50,[10],12.5 µM (active)
same,CC50,[11],19 µM (active)
same,EC50,H4,22.1 µM (active)
same,EC50,[12],2.13 µM (active)
same,IC50,Genome polyprotein,42.2 µM (active)
same,EC50,[13],71.2 µM (active)
same,IC50,cells,6.21 µM (active)
COc1ccc(-c2nc3c4cnn(C)c4ncn3n2)cc1,IC50,[14],> 100 µM (inactive)
same,IC50,[15],> 100 µM (inactive)
same,IC50,[16],> 100 µM (not active)
O=C(c1cc(-c2ccc(Cl)cc2Cl)n[nH]1)N1CCN(CCO)CC1,IC50,[14],> 100 µM (inactive)
same,IC50,[16],> 100 µM (not active)
CC1(C)CC2CC(C)(CN2CC(O)COc2ccccc2)C1 (stereo not drawn),EC50,[1],1.88 µM (active)
CCn1c(SCC(=O)NCc2ccccc2)nnc1C(CO)NC(=O)c1ccccc1 (stereo not drawn),IC50,[2],3.67 µM (active)
same,IC50,[3],6.06 µM (active)
same,IC50,[4],4.48 µM (active)
same,IC50,[5],> 100 µM (inactive)
C[C@H]1C=CC(=O)O[C@H]1c1ccccc1,CC50,[8],22.9 µM (active)
COc1ccc(/C=N/Nc2nc(-c3ccc(C)cc3)c(NC(C)=O)s2)cc1,CC50,[8],> 40 µM (active)
CCCCCC(=O)Nc1cccc(C2=NOC3(C2)C[C@@H](C(N)=O)N(C(=O)CC(c2ccccc2)c2ccccc2)C3)c1 (stereo partly drawn),EC50,[9],> 60 µM (not active)
same,EC50,[12],0.396 µM (active)
same,CC50,[8],> 40 µM (active)
CC1=CC(C)C(CN(CCC[N+](C)(C)C)C(=O)Nc2ccccc2)C(C)C1 (stereo not drawn),IC50,[3],4.08 µM (active)
same,IC50,[5],> 100 µM (inactive)
CCCCCCCCCCSc1nnc(NC(C)=O)[nH]1,IC50,[14],> 100 µM (inactive)
Cn1c(=O)cc(SCC(=O)NCCC2=CCCCC2)c2ccc(Cl)cc21,Absolute IC50 (XBP1),X-box-binding protein 1,10 µM
